Experimental data reported in ChEMBL document CHEMBL1201862, “PubChem BioAssay data set” (2004).
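48-hour exposure; five concentrations; linearly interpolated endpoints. GI50 marks 50% less growth.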 Active and inactive are the calls of the source. Cut-off read from the data, not from the text of the source: active = GI50 up to about 1.1 µM and inactive = higher.

Key:
Assay in all cases: NCI anticancer screen, dose series, 48 h
HOP-62 = test system: HOP-62
HCT-116 = test system: HCT-116
UO-31 = test system: UO-31
786-0 = test system: 786-0
MOLT-4 = test system: MOLT-4
SK-MEL-28 = test system: SK-MEL-28
LOX IMVI = test system: LOX IMVI
HT-29 = test system: HT-29
CAKI-1 = test system: CAKI-1
SK-OV-3 = test system: SK-OV-3
NCI-H23 = test system: NCI-H23
TK-10 = test system: TK-10
A498 = test system: A498
HL-60 = test system: HL-60
A549 = test system: A549
HCC 2998 = test system: HCC 2998
UACC-62 = test system: UACC-62
OVCAR-4 = test system: OVCAR-4
IGROV-1 = test system: IGROV-1
OVCAR-3 = test system: OVCAR-3

Measured: GI50

COC(=O)c1sc2nc(Nc3ccccc3)/c(=N\c3ccccc3)sc2c1C
inactive: HOP-62 49.8 µM | HCT-116 51.8 µM | UO-31 > 100 µM | 786-0 34.8 µM | MOLT-4 > 100 µM | SK-MEL-28 > 100 µM | LOX IMVI > 100 µM | HT-29 > 100 µM | CAKI-1 58.6 µM | SK-OV-3 32.8 µM | NCI-H23 94.4 µM | TK-10 30.5 µM | A498 53.7 µM | HL-60 > 100 µM | A549 65.8 µM | HCC 2998 > 100 µM | UACC-62 35.6 µM | OVCAR-4 64.7 µM | IGROV-1 45.4 µM

COc1ccccc1NC(=O)O/N=C(/Cl)C(C)C
inactive: HOP-62 12.5 µM | HCT-116 14.1 µM | UO-31 18.8 µM | 786-0 11.9 µM | OVCAR-3 6.19 µM | MOLT-4 1.92 µM | SK-MEL-28 13.6 µM | LOX IMVI 2.28 µM | HT-29 3.49 µM | SK-OV-3 18.7 µM | NCI-H23 14 µM | TK-10 13.6 µM | A498 15.6 µM | HL-60 1.64 µM | A549 18.2 µM | HCC 2998 15.6 µM | UACC-62 17.5 µM | IGROV-1 16.7 µM

Cn1c(CCC#N)nc2ccc(Br)cc2c1=O
inactive: HOP-62 > 100 µM | UO-31 > 100 µM | 786-0 > 100 µM | MOLT-4 > 100 µM | SK-MEL-28 > 100 µM | LOX IMVI > 100 µM | HT-29 > 100 µM | CAKI-1 > 100 µM | SK-OV-3 > 100 µM | NCI-H23 41.7 µM | TK-10 > 100 µM | A498 > 100 µM | HL-60 > 100 µM | A549 > 100 µM | HCC 2998 > 100 µM | UACC-62 > 100 µM | OVCAR-4 > 100 µM | IGROV-1 > 100 µM

Fc1ccc2c3c([nH]c2c1)CCNC3
inactive: HOP-62 > 100 µM | HCT-116 > 100 µM | UO-31 31.8 µM | 786-0 > 100 µM | MOLT-4 > 100 µM | SK-MEL-28 > 100 µM | LOX IMVI > 100 µM | HT-29 > 100 µM | SK-OV-3 > 100 µM | NCI-H23 > 100 µM | TK-10 > 100 µM | A498 20.4 µM | HL-60 > 100 µM | A549 > 100 µM | HCC 2998 76 µM | UACC-62 > 100 µM | OVCAR-4 > 100 µM | IGROV-1 > 100 µM

CCCCCC/C=C\CCCCCCCCC(=O)c1cccc(OC)c1OC
inactive: HOP-62 > 100 µM | HCT-116 41.7 µM | UO-31 > 100 µM | 786-0 > 100 µM | MOLT-4 25.7 µM | SK-MEL-28 > 100 µM | LOX IMVI 16.8 µM | HT-29 41.9 µM | CAKI-1 > 100 µM | SK-OV-3 > 100 µM | NCI-H23 40.2 µM | TK-10 > 100 µM | A498 26 µM | HL-60 14.8 µM | A549 > 100 µM | HCC 2998 > 100 µM | UACC-62 > 100 µM | IGROV-1 35.4 µM

C[C@]12CC[C@H](O)CC1=CC[C@@H]1C2CC[C@]2(C)NC(=O)C(C#N)CC12 (some centres not stated)
inactive: HOP-62 > 100 µM | HCT-116 > 100 µM | UO-31 > 100 µM | 786-0 > 100 µM | OVCAR-3 > 100 µM | MOLT-4 > 100 µM | SK-MEL-28 66.8 µM | HT-29 > 100 µM | CAKI-1 > 100 µM | SK-OV-3 > 100 µM | NCI-H23 > 100 µM | TK-10 > 100 µM | A498 > 100 µM | HL-60 > 100 µM | A549 > 100 µM | HCC 2998 > 100 µM | UACC-62 15.7 µM | OVCAR-4 > 100 µM | IGROV-1 > 100 µM

O=S1(=O)OCCOS(=O)(=O)C1I
inactive: HOP-62 > 100 µM | HCT-116 > 100 µM | UO-31 48.5 µM | 786-0 71 µM | OVCAR-3 > 100 µM | MOLT-4 75.3 µM | SK-MEL-28 > 100 µM | HT-29 > 100 µM | CAKI-1 > 100 µM | SK-OV-3 > 100 µM | NCI-H23 > 100 µM | TK-10 > 100 µM | A498 > 100 µM | HL-60 53.2 µM | A549 > 100 µM | HCC 2998 > 100 µM | UACC-62 40.1 µM | OVCAR-4 > 100 µM | IGROV-1 > 100 µM

CC1C(c2ccccc2)OP(=O)(OC(C#N)c2ccccc2)N1C (configuration not stated)
inactive: HOP-62 > 100 µM | HCT-116 > 100 µM | UO-31 97.3 µM | 786-0 > 100 µM | OVCAR-3 > 100 µM | MOLT-4 37.8 µM | SK-MEL-28 > 100 µM | LOX IMVI 79.6 µM | HT-29 > 100 µM | CAKI-1 > 100 µM | SK-OV-3 > 100 µM | NCI-H23 > 100 µM | TK-10 > 100 µM | A498 > 100 µM | HL-60 27.6 µM | A549 > 100 µM | HCC 2998 48.4 µM | UACC-62 > 100 µM | IGROV-1 > 100 µM

CC1=NN(c2nc(N)nc(CSc3nc4n(c(=S)n3)CCN4)n2)C(C)(C)C1
inactive: HOP-62 14 µM | HCT-116 > 100 µM | 786-0 93.5 µM | MOLT-4 > 100 µM | SK-MEL-28 > 100 µM | LOX IMVI 43.6 µM | HT-29 > 100 µM | CAKI-1 25.2 µM | SK-OV-3 19.1 µM | NCI-H23 47.5 µM | TK-10 74.1 µM | A498 39.7 µM | HL-60 > 100 µM | HCC 2998 > 100 µM | UACC-62 43.1 µM | OVCAR-4 > 100 µM | IGROV-1 15.1 µM

CCCCCCCCCCCCCC(=O)CSCCNC(=O)CCNC(=O)[C@@H](O)C(C)(C)COP(=O)(O)OP(=O)(O)OCC1OC(n2cnc3c(N)ncnc32)C(O)C1OP(=O)(O)O (some centres not stated)
inactive: HOP-62 16 µM | HCT-116 15.8 µM | UO-31 14.4 µM | 786-0 15.5 µM | OVCAR-3 38 µM | SK-MEL-28 18.3 µM | LOX IMVI 18.4 µM | HT-29 18.8 µM | SK-OV-3 14.6 µM | NCI-H23 18.7 µM | TK-10 68.2 µM | A498 18.4 µM | HL-60 20.5 µM | A549 20.1 µM | HCC 2998 16.5 µM | UACC-62 15 µM | OVCAR-4 6.75 µM | IGROV-1 13.6 µM

C/C(=N\NC(N)=S)c1cccs1.OB(O)c1ccccc1
inactive: HOP-62 > 100 µM | HCT-116 > 100 µM | UO-31 66.7 µM | 786-0 > 100 µM | OVCAR-3 > 100 µM | MOLT-4 > 100 µM | SK-MEL-28 > 100 µM | LOX IMVI > 100 µM | HT-29 > 100 µM | SK-OV-3 > 100 µM | NCI-H23 > 100 µM | TK-10 > 100 µM | A498 > 100 µM | HL-60 > 100 µM | A549 > 100 µM | HCC 2998 > 100 µM | UACC-62 > 100 µM | OVCAR-4 > 100 µM | IGROV-1 > 100 µM
